Assay results from PubChem BioAssay AID1996.
≈ marks a conversion by molar mass, not a printed value.

Details: buffer; pH 7.4; 200.0 µM

Row | solubility kinetic | SMILES
1 | > 41.3 µg/mL | Cc1cccnc1NC(=O)CNC(=O)C1CCCCC1
2 | > 53.3 µg/mL | COc1ccc(NC(=O)CSc2nnc(-c3cccnc3)n2C)cc1
3 | 29.9 µg/mL (≈ 112 µM) | COC(=O)c1ccc(Cn2cnc3cnccc32)cc1
4 | 36.6 µg/mL (≈ 92.6 µM) | CCOC(=O)C1CCN(C(=O)COc2ccc(C(=O)c3ccccc3)cc2)CC1
5 | 29.7 µg/mL (≈ 99.9 µM) | CSc1ccc(S(=O)(=O)NC2CC3CCC2C3)cc1 (centres undefined)
6 | 47 µg/mL (≈ 119 µM) | COc1ccc(CCNC(=O)COC(=O)Cc2c[nH]c3ccccc23)cc1OC
7 | 16.5 µg/mL (≈ 52.7 µM) | Cc1ccc(OCCC(=O)OCC(=O)Nc2ccccc2)cc1
8 | > 42.3 µg/mL | CC1CCN(CCC(=O)Nc2ccc(F)c(F)c2)CC1
9 | 43.5 µg/mL (≈ 129 µM) | CCc1ccccc1N(CC(=O)N1CCCCCC1)S(C)(=O)=O
10 | 36.9 µg/mL (≈ 107 µM) | CCOC(=O)N1CCN(S(=O)(=O)c2ccc([N+](=O)[O-])cc2)CC1
11 | < 0.7 µg/mL | COc1ccc(C(=O)COC(=O)c2cccnc2SC)cc1
12 | > 45.8 µg/mL | COc1ccc(CC(=O)OCC(=O)NC2CCCCC2)cc1
13 | > 43.3 µg/mL | CC1CCCCN1S(=O)(=O)c1csc(C(N)=O)c1 (centres undefined)
14 | 34.6 µg/mL (≈ 114 µM) | O=C(CNC(=O)c1ccco1)NCc1ccc2c(c1)OCO2
15 | > 78.1 µg/mL | CCOc1ccc(S(=O)(=O)Nc2cc(NS(=O)(=O)c3ccc(OCC)cc3)cc(C(=O)O)c2)cc1
16 | > 44.9 µg/mL | CC1CN(C(=O)COc2ccc3ccccc3c2)CC(C)O1 (centres undefined)
17 | 40 µg/mL (≈ 137 µM) | COc1ccc(OC(C)C(=O)NC2CCCCCC2)cc1 (centres undefined)
18 | 39.8 µg/mL (≈ 132 µM) | O=C(NCCN1CCCCC1)c1cc(Cl)ccc1Cl
19 | > 55.6 µg/mL | CC1(C)C(=O)Nc2ccccc2N1C(=O)COC(=O)Cc1ccccc1F
20 | > 49.9 µg/mL | COc1cccc2cc(C(=O)NCCN3CCOCC3)c(=O)oc12
21 | < 0.8 µg/mL | COc1ccc(C(=O)O/N=C2\CCS(=O)(=O)c3sccc32)cc1
22 | > 51.7 µg/mL | COC(=O)[C@H](Cc1ccccc1)NC(=O)NCCc1ccccc1F
23 | 50.2 µg/mL (≈ 140 µM) | O=C(NC1(C(F)(F)F)NC(=O)N(C2CCCCC2)C1=O)c1ccco1 (centres undefined)

The remaining lines, values behind:

Row | SMILES | solubility kinetic
24 | Cc1ccc(C(O)CCc2ccc(N)cc2)cc1 (centres undefined) | 31.9 µg/mL (≈ 132 µM)
25 | CNC(=O)/C(C#N)=C/c1c(N2CCCCCC2)nc2c(C)cccn2c1=O | 50.4 µg/mL (≈ 138 µM)
26 | c1csc(-c2noc(CN3CCN4CCCC4C3)n2)c1 (centres undefined) | > 43.6 µg/mL
27 | COc1cc(OC)c2c(c1)S(=O)(=O)C(c1ccccc1)=C2N | 5.1 µg/mL (≈ 16.1 µM)
28 | Cc1nc2ccc(NS(=O)(=O)c3cccc([N+](=O)[O-])c3)cc2s1 | > 52.4 µg/mL
29 | CC1(C)Cc2ccccc2C(CSc2ccccc2C(=O)O)=N1 | 43.1 µg/mL (≈ 132 µM)
30 | CCOc1ccc2nc(SCC(=O)Nc3nonc3C)[nH]c2c1 | 2.2 µg/mL (≈ 6.6 µM)
31 | Cc1ccc(NC(=O)CNS(=O)(=O)c2ccc(F)cc2)cc1C | 6.7 µg/mL (≈ 19.9 µM)
32 | CCCc1ccc(-c2ccc(-c3noc(-c4ccncc4)n3)cc2)nc1 | < 0.2 µg/mL
33 | CNc1ccc(/C=C(\C#N)C(=O)Nc2ccccn2)cc1[N+](=O)[O-] | 2.8 µg/mL (≈ 8.66 µM)
34 | O=C(Nc1cccc(C(=O)Nc2ccc(F)cc2F)c1)c1ccccc1 | 0.4 µg/mL (≈ 1.14 µM)
35 | CCCCn1c(=O)c(C(=O)Nc2ccccc2N)c(O)c2ccccc21 | < 0.3 µg/mL
36 | COCCOC(=O)C(CC(=O)O)NCc1ccco1 (centres undefined) | > 40.7 µg/mL
37 | Clc1nc(N2CCOCC2)ncc1Br | > 41.8 µg/mL
38 | CC(NC(=O)N1CCOCC1)c1ccccc1 (centres undefined) | > 35.1 µg/mL
39 | Cc1cc(=O)[nH]c(SCC(=O)NCc2ccc3c(c2)OCO3)n1 | > 50 µg/mL
40 | CC(=O)N(C)c1ccc(NC(=O)Nc2ccc(Cl)cc2)cc1 | 45.2 µg/mL (≈ 142 µM)
41 | NC(=O)C1CCN(c2oc(-c3cccs3)nc2S(=O)(=O)c2ccc(Cl)cc2)CC1 | 51.9 µg/mL (≈ 115 µM)

Row | SMILES | solubility kinetic
42 | CCS(=O)(=O)c1ccc(O)c(NC(=O)/C=C/c2ccccc2)c1 | > 49.7 µg/mL
43 | Cc1[nH]c2ccccc2c1C(O)CN1CCC2(CC1)OCCO2 (centres undefined) | > 47.5 µg/mL
44 | CC(C)NCC(=O)Nc1c2c(nc3ccccc13)CCC2.O=C(O)C(=O)O | > 56 µg/mL
45 | COc1ccc(CNC(=S)NCc2ccc(Cl)cc2)cc1OC | 35 µg/mL (≈ 99.8 µM)
46 | Cc1ccc(S(=O)(=O)N2CCOCC2)cc1C(=O)N1CCCC1 | > 50.8 µg/mL
47 | NCCCN1CCN(c2ccccc2)CC1 | 26.3 µg/mL (≈ 120 µM)
48 | COc1cccc2cc(C(=O)Nc3ccccc3C)/c(=N/O)oc12 | 4.6 µg/mL (≈ 14.2 µM)
49 | CC(C)Sc1nc2c(c(=O)[nH]c(=O)n2C)n1Cc1ccccc1 | 2.8 µg/mL (≈ 8.47 µM)
50 | CC1CCc2onc(C(=O)NCc3ccco3)c2C1 (centres undefined) | 22.6 µg/mL (≈ 86.8 µM)
51 | Cc1cc(C(=O)Nc2sccc2C#N)c2ccccc2n1 | 20.8 µg/mL (≈ 70.9 µM)
52 | CC(NCCN(C)C)C(=O)C12CC3CC(CC(C3)C1)C2.Cl (centres undefined) | 52.4 µg/mL
53 | OCC1OC(n2cnc3c(NC4CCCC4)ncnc32)C(O)C1O (centres undefined) | > 50.3 µg/mL
54 | N#Cc1ccc(CSc2nc(N)cc(N)n2)cc1 | 37.3 µg/mL (≈ 145 µM)
55 | CC(C)CN(C(=O)CSc1nc(N)cc(N)n1)C1CCS(=O)(=O)C1 (centres undefined) | > 56 µg/mL
56 | CC(=O)c1ccc(OCC(C)Oc2ccc(C#N)cc2)cc1 (centres undefined) | 23.3 µg/mL (≈ 78.9 µM)
57 | CCCc1cc(=O)[nH]c(SCC(=O)c2c(N)n(C3CC3)c(=O)[nH]c2=O)n1 | 30.7 µg/mL (≈ 81.3 µM)
58 | O=C(c1ccccc1)N1CCSc2sccc2C1=O | 37.5 µg/mL (≈ 130 µM)
59 | CN(C(=O)c1cc2ccccc2o1)c1c(N)n(Cc2ccccc2)c(=O)[nH]c1=O | > 58.6 µg/mL
